Results on three molecules are retold here after ChEMBL document CHEMBL1139228, “Saliniketals A and B, bicyclic polyketides from the marine actinomycete Salinispora arenicola” (J Nat Prod, 2007).

Calls of active or inactive are those of the source. The calls are words filed in the database; no cut-off is given here.

Test [1] addresses T1, Ornithine decarboxylase (Homo sapiens) (UniProt P11926).
T1 sequence (whole entry): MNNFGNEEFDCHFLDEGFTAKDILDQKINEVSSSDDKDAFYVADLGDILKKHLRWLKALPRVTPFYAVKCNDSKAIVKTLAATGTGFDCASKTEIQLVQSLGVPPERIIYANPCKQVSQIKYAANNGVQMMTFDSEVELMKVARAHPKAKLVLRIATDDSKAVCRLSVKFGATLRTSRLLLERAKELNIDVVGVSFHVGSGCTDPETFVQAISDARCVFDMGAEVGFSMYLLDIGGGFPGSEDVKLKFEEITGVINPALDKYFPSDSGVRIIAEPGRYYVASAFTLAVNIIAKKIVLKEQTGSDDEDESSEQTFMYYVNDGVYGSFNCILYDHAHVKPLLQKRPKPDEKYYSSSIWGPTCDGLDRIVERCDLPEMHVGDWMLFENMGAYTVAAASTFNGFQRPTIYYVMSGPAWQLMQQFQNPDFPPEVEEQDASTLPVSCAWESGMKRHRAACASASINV
Description: Inhibition of ornithine decarboxylase induction expressed in T24 cells. Type of test: cell-based. As to conditions: T-24.

The target in test [2] is T1, Ornithine decarboxylase (Homo sapiens). Description: Inhibition of ornithine decarboxylase upto 1 mM.
A short description of test [3]: Inhibition of DNA dependent RNA polymerase in prokaryotes.

Turning to `C/C(=C/C=C/[C@H](C)[C@H](O)[C@@H](C)[C@@H](O)[C@@H](C)[C@@H]1O[C@@]2(C)CC[C@@H](O2)[C@H]1C)C(N)=O`, the outcome in test [1] and in test [2] was inactive.
`C[C@H]([C@H](O)[C@H](C)[C@@H](O)[C@@H](C)/C=C/C=C(/CO)C(N)=O)[C@@H]1O[C@@]2(C)CC[C@@H](O2)[C@H]1C`: the result in test [1] and in test [2] was inactive.
Take `CO[C@H]1/C=C/O[C@@]2(C)Oc3c(C)c(O)c4c(O)c(cc(O)c4c3C2=O)NC(=O)/C(C)=C\C=C\[C@H](C)[C@H](O)[C@@H](C)[C@@H](O)[C@@H](C)[C@H](OC(C)=O)[C@@H]1C`: the outcome in test [3] was Active.
